Read-outs that look alike come from different tables or passages of the source.
How the values were obtained:
[1] = test system: RBL-2H3 cells; assay: Inhibition of serotonin liberation from IgE-sensitized RBL-2H3 cells after antigen stimulation; assay type: cell-based, rat; details: Rattus norvegicus; [3H]-serotonin release, IgE-sensitized RBL-2H3 cells, antigen stimulation; read-out: IC50 (μM) in serotonin liberation from RBL-2H3 cells
Procedure, shortened: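 Rat RBL-2H3 cells labelled with [3H]-serotonin and sensitized with IgE simultaneously, incubated with compound, then challenged with specific antigen. Inhibition derived from [3H]-serotonin released into medium relative to release without compound.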

[2] = target: T1, tyrosine kinase of 72 kDa (Rattus norvegicus, UniProt Q64725); assay: Inhibition of activation (phosphorylation) of tyrosine kinase of 72 kDa due to antigenic stimulation in RBL-2H3 cells; assay type: cell-based
T1 construct: endogenous in cells; host or cells: RBL-2H3 cells
T1 sequence (Q64725 whole entry): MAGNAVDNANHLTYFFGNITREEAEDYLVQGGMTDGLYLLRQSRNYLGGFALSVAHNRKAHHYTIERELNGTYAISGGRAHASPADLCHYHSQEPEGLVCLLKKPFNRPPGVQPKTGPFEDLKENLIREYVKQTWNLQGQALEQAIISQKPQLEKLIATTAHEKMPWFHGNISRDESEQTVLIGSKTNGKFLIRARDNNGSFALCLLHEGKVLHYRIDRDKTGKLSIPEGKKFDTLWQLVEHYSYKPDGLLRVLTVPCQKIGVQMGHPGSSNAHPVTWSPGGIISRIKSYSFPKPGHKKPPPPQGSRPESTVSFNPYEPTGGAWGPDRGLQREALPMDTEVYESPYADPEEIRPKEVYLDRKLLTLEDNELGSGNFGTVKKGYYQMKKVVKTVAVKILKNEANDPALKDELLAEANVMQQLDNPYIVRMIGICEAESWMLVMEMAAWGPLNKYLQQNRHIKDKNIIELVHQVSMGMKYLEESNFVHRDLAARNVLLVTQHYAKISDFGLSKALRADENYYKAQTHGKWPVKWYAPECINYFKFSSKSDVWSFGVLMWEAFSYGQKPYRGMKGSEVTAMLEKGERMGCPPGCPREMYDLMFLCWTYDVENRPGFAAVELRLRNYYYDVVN
Experimental: RBL-2H3 cells were incubated for 10 min together with a test compound in a PBS buffer containing 0.1% of BSA and 1 mM of calcium. Next, the cells were reacted with an antigen specific for the IgE receptor for 10 min. After the completion of the antigenic stimulation, the cells were allowed to stand in ice for 1 hr in a 10 mM phosphate buffer (pH 7.5) containing a lysis buffer (1% Triton X-100, 0.1% SDS, 0.5% sodium deoxycholate, 50 mM NaCl, 50 mM NaF, 1 mM phenylmethyl sulfonyl fluoride, 50 μg/ml eupeptin, 10 unit/ml aprotonin) and 0.1% of NaN3 followed by centrifugation to give a cell lysate. This lysate was diluted with a buffer for electrophoresis, heated (95° C., 5 min) and then electrophoresed on a 10% SDS-polyacrylamide gel. After the electrophoresis, the sample was electrically transcribed onto a 0.2 μm nitrocellulose membrane and treated with an anti-phosphotyrosine antibody for 1 hr. Then the inhibitory activity was evaluated by the coloring analysis through chemiluminescence.

[3] = test system: human basophils; assay: Inhibition of mediator (histamine, peptide leukotriene) liberation from human basophils stimulated with mite antigen; assay type: cell-based; details: enzyme immunoassay
Procedure, shortened: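 Dextran-separated leukocyte fraction containing basophils from heparinized human blood, in D-PBS(+) with 0.1% BSA, pretreated with compound 15 min at 37 °C, then challenged with mite antigen for 10 min. Released histamine and peptide leukotrienes in supernatant quantified by enzyme immunoassay.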

[4] = histamine, read-out: IC50 (μM) in mediator liberation from human basophils: histamine
[5] = peptide leukotriene, read-out: IC50 (μM) in mediator liberation from human basophils: leukotriene

SMILES	IC50 [1] [µM]	Inhibitory Strength (%) ([2]; Conc. of Compd. 3 μM)	IC50 [3, 4] [µM]	IC50 [3, 5] [µM]	Inhibitory Strength (%) ([2]; Conc. of Compd. 30 μM)
Cc1ccc2c(c1C)N(CCCN)c1ccccc1[S+]2[O-] (stereo not shown) [Example 8, 1,2-Dimethyl-10-(3-aminopropyl)phenothiazine-5-oxide]	0.1	100	–	–	–
Cc1ccc2c(c1C)N(CCCN1CCCCC1)c1ccccc1[S+]2[O-] (stereo not shown) [Example 104]	< 3	100	–	–	–
Cc1ccc2c(c1C)N(CCCN1CCC(C(=O)O)CC1)c1ccccc1[S+]2[O-] (stereo not shown) [Example 129]	< 1	100	–	–	–
Cc1ccc2c(c1C)N(CCCN(CC(=O)O)CC(=O)O)c1ccccc1[S+]2[O-] (stereo not shown) [Example 132]	2	100	–	–	–
Cc1ccc2c(c1C)N(CCNCc1ccccc1O)c1ccccc1[S+]2[O-] (stereo not shown) [Example 144]	8	–	10 to 30	10 to 30	–
Cc1ccc2c(c1C)N(CCNCc1cccc(C)c1O)c1ccccc1[S+]2[O-] (stereo not shown) [Example 145]	6	–	10 to 30	< 10	–
Cc1ccc2c(c1C)N(CCNCc1cc(Cl)cc(Cl)c1O)c1ccccc1[S+]2[O-] (stereo not shown) [Example 146]	3	–	< 10	< 10	–
Cc1ccc2c(c1C)N(CCNCc1cccc(C(C)C)c1O)c1ccccc1[S+]2[O-] (stereo not shown) [Example 147]	3	–	10	< 10	–
Cc1ccc2c(c1C)N(CCNCc1c(O)cccc1O)c1ccccc1[S+]2[O-] (stereo not shown) [Example 150]	1	–	10 to 30	3 to 10	–
COCc1cccc(CNCCN2c3ccccc3[S+]([O-])c3ccc(C)c(C)c32)c1O (stereo not shown) [Example 151]	2	–	10 to 30	3 to 10	–
Cc1ccc2c(c1C)N(CCNCc1cccc(CO)c1O)c1ccccc1[S+]2[O-] (stereo not shown) [Example 152]	1	–	3 to 10	< 3	–
COc1cccc(CNCCN2c3ccccc3[S+]([O-])c3ccc(C)c(C)c32)c1O (stereo not shown) [Example 154]	6	–	10 to 30	< 10	–
COc1ccccc1CNCCN1c2ccccc2[S+]([O-])c2ccc(C)c(C)c21 (stereo not shown) [Example 155]	4	–	30 to 100	10 to 30	–
Cc1ccc2c(c1C)N(CCNCc1ccccc1CO)c1ccccc1[S+]2[O-] (stereo not shown) [Example 156]	3	–	10	10	–
Cc1ccc2c(c1C)N(CCNCc1ccccc1OCCO)c1ccccc1[S+]2[O-] (stereo not shown) [Example 157]	1	–	30 to 100	10 to 30	–
Cc1ccc2c(c1C)N(CCNCc1ncc[nH]1)c1ccccc1[S+]2[O-] (stereo not shown) [Example 162]	1	–	30 to 100	< 10	–
Cc1ccc2c(c1C)N(CCNCc1cccc(C(F)(F)F)c1O)c1ccccc1[S+]2[O-] (stereo not shown) [Example 163]	3	–	10 to 30	10	–
Cc1ccc2c(c1C)N(CCCN(C)Cc1ccc(O)cc1)c1ccccc1[S+]2[O-] (stereo not shown) [Example 165]	0.3	–	10 to 30	3 to 10	–
Cc1ccc2c(c1C)N(CCCN(C)Cc1cccc(O)c1)c1ccccc1[S+]2[O-] (stereo not shown) [Example 166]	0.5	–	10 to 30	3 to 10	–
Cc1ccc2c(c1C)N(CCCN(C)Cc1cccc(C)c1O)c1ccccc1[S+]2[O-] (stereo not shown) [Example 168]	2	–	< 10	< 10	–
COc1cccc(CN(C)CCCN2c3ccccc3[S+]([O-])c3ccc(C)c(C)c32)c1O (stereo not shown) [Example 169]	0.5	–	30 to 100	10 to 30	–

SMILES	IC50 [1] [µM]	Inhibitory Strength (%) ([2]; Conc. of Compd. 3 μM)	IC50 [3, 4] [µM]	IC50 [3, 5] [µM]	Inhibitory Strength (%) ([2]; Conc. of Compd. 30 μM)
COc1cccc(OC)c1CN(C)CCCN1c2ccccc2[S+]([O-])c2ccc(C)c(C)c21 (stereo not shown) [Example 170]	0.5	–	10 to 30	3	–
Cc1ccc2c(c1C)N(CCCN(C)Cc1cc(O)ccc1O)c1ccccc1[S+]2[O-] (stereo not shown) [Example 171]	0.8	–	3 to 10	3 to 10	–
Cc1ccc2c(c1C)N(CCCN(C)Cc1ccccc1OCCO)c1ccccc1[S+]2[O-] (stereo not shown) [Example 173]	0.3	–	30	10	–
Cc1ccc2c(c1C)N(CCCN(C)Cc1c(O)ccc(C)c1O)c1ccccc1[S+]2[O-] (stereo not shown) [Example 174]	0.5	–	10 to 30	10	–
COc1cc(C)c(O)c(CN(C)CCCN2c3ccccc3[S+]([O-])c3ccc(C)c(C)c32)c1O (stereo not shown) [Example 175]	0.8	–	30 to 100	10	–
COc1ccc(CN(C)CCCN2c3ccccc3[S+]([O-])c3ccc(C)c(C)c32)o1 (stereo not shown) [Example 176]	2	–	30 to 100	10 to 30	–
Cc1ccc2c(c1C)N(CCCN(C)Cc1ccc(CO)o1)c1ccccc1[S+]2[O-] (stereo not shown) [Example 177]	1	–	10	< 3	–
COc1cccc(CN(C)CCN2c3ccccc3[S+]([O-])c3ccc(C)c(C)c32)c1O (stereo not shown) [Example 180]	2	–	30 to 100	3 to 10	–
Cc1ccc2c(c1C)N(CCN(C)Cc1cccc(C)c1O)c1ccccc1[S+]2[O-] (stereo not shown) [Example 181]	2	–	10 to 30	< 10	–
COc1ccccc1CN(C)CCN1c2ccccc2[S+]([O-])c2ccc(C)c(C)c21 (stereo not shown) [Example 182]	2	–	30 to 100	10 to 30	–
Cc1ccc2c(c1C)N(CCN(C)Cc1ccccc1OCCO)c1ccccc1[S+]2[O-] (stereo not shown) [Example 183]	3	–	30 to 100	10 to 30	–
Cc1ccc2c(c1C)N(CCN(C)Cc1cccc(CO)c1O)c1ccccc1[S+]2[O-] (stereo not shown) [Example 185]	0.5	–	10 to 30	< 3	–
Cc1ccc2c(c1)N(CCCN(C)Cc1ccccc1O)c1c(ccc(C)c1C)[S+]2[O-] (stereo not shown) [Example 188]	1	–	10	3 to 10	–
COc1ccc2c(c1)N(CCCN(C)Cc1ccccc1O)c1c(ccc(C)c1C)[S+]2[O-] (stereo not shown) [Example 189]	0.8	–	3 to 10	3 to 10	–
Cc1ccc2c(c1C)N(CCCN(C)Cc1ccccc1)c1cc(-c3nnn(C)n3)ccc1[S+]2[O-] (stereo not shown) [Example 190]	0.5	–	3	10	–
Cc1ccc2c(c1C)N(CCN(CCO)Cc1ccccc1)c1ccccc1[S+]2[O-] (stereo not shown) [Example 193]	2	–	30	10	–
Cc1ccc2c(c1C)N(CCNCc1ccc(S(N)(=O)=O)cc1)c1ccccc1[S+]2[O-] (stereo not shown) [Example 195]	0.5	–	30 to 100	10 to 30	–
Cc1ccc2c(c1C)N(CCCN)c1ccccc1S2(=O)=O [Example 196, 1,2-Dimethyl-10-(3-aminopropyl)phenothiazine-5,5-dioxide]	5	–	–	–	30
Cc1ccc2c(c1C)N(CCCNCc1ccccc1)c1ccccc1S2(=O)=O [Example 200]	0.4	–	–	–	70
Cc1ccc2c(=NOC(C)C(=O)O)c3ccccc3n(CCCNCc3ccccc3)c2c1C (stereo not shown) [Example 236]	1	70	–	–	–
Cc1ccc2c(c1C)N(CCCNCc1ccccc1)c1cccc(CC(=O)O)c1[S+]2[O-] (stereo not shown) [Example 262]	8	–	–	–	100

— patent publication US6703388B2, “Nitrogen-containing tricyclic compounds and drugs containing the same” (Eisai Co., Ltd., priority 1996, dated 2004)
